According to patent US20110038885A1, “CHEMOKINE ANALOGS” (priority 2007, published 2011):
Bridge positions count the residues as written; N and C are the ends. Square brackets hold non-standard residues; d marks the D form. Peptide text beside a SMILES is read from it. Dap = NC[C@H](N)C(=O)O

Tests used:
IL-8 = test: In vitro chemotaxis, inhibition v IL-8; type: cell-based, human; design: concentration or dose not given beside the values
Experimental: To determine whether an agent inhibits a chemokine-induced activity, such as macrophage recruitment, varying amounts of the agent are mixed with cells in the presence of a known chemoattractant. For example, a range of known concentrations of an agent, e.g., a chemokine peptide, is incubated with a defined number (e.g., 10^4-10^6) of human THP-1 monocyte cells in individual wells of the top compartment of a trans-well plate. Chemokine, at a concentration known to cause significant migration of THP-1 cells in the trans-well migration assay, is placed in the lower compartment of a trans-well plate. Cells are then incubated at 37° C. for a period sufficient to allow migration, e.g., 4 hours. After incubation, the cells are gently removed from the top of the filter with a pipette, 20 μl of 20 mM EDTA in simple PBS is added into each top well, and incubated for 20 minutes at 4° C. The filter is carefully flushed with media using a gentle flow, and removed. A standard curve consisting of a two-fold dilution series of THP-1 cells (in 29 μl) is placed to accurately quantify the number of cells that have migrated. Migrated cells are stained with 3 μl of MTT stock dye solution which is added directly into each well (5 mg/ml in RPMI-1640 without phenol red) (Sigma Chemical Co., St. Louis, Mo., USA) and incubated at 37° C. for 4 hours. The media is carefully aspirated from each well, and the converted dye is solubilized by 20 μl of DMSO. Absorbance of converted dye is measured at a wavelength of 595 nm using an ELISA plate reader. The number of migrated cells in each well is then determined by interpolation of the standard curve (see also Imai et al., J. Biol. Chem., 272:15036, 1997). Any method suitable for counting cells can be used, for example, counting with a hemocytometer, incubation of the cells with MTT (see above), or FACS analysis. A negative control assay is also performed, using TGFβ or another non-chemokine chemoattractant (e.g., IL1β or TNFα). To assess whether the agent is cytotoxic, the same concentrations of agent are incubated with THP-1 cells. Agents which 1) are not cytotoxic at levels which inhibit migration, 2) are ineffective at inhibiting the negative control-induced migration, and 3) reduce or inhibit chemokine-induced THP-1 migration, are agents which fall within the scope of the invention.

MCP-1 = test: In vitro chemotaxis (trans-well migration) v MCP-1; type: cell-based, human
Procedure, shortened: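 Human THP-1 monocytes (10^4-10^6) with agent at varying concentrations in upper trans-well chamber; IL-8 or MCP-1 in lower chamber at a migration-inducing concentration, 37° C for e.g. 4 hours. Migrated cells quantified by MTT (595 nm) against a THP-1 standard curve; cytotoxicity and non-chemokine chemoattractant controls run.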

| EC50 (MCP-1) [nM] | Structure (SMILES) | v IL-8 inhibition (%) (IL-8) |
| --- | --- | --- |
| 50 | CC[C@H](C)[C@@H]1NC(=O)[C@H](Cc2c[nH]c3ccccc23)NC(=O)[C@H](CCCCN)NC(=O)[C@H](CCC(N)=O)NC(=O)[C@H](CCCCN)NC(=O)[C@@H]2CCCN2C(=O)[C@@H](CC(=O)O)NC(=O)[C@H](CC(C)C)NC(=O)[C@@H](NC(C)=O)CSSC[C@@H](C(N)=O)NC(=O)[C@H](CCC(N)=O)NC1=O [Example 31, Ac-c(Cys-Leu-D-Asp-Pro-Lys-Gln-Lys-Trp-Ile-Gln-Cys)-NH2] (Ac-CL[dD]PKQKWIQC-NH2; disulfide 1-11) | 95.8 |
| > 1000 | CC[C@H](C)[C@@H]1NC(=O)[C@H](Cc2c[nH]c3ccccc23)NC(=O)[C@H](CCCCN)NC(=O)[C@H](CCC(N)=O)NC(=O)[C@H](CCCCN)NC(=O)[C@@H]2CCCN2C(=O)[C@H](CC(=O)O)NC(=O)[C@@H](CC(C)C)NC(=O)[C@@H](NC(C)=O)CSSC[C@@H](C(N)=O)NC(=O)[C@H](CCC(N)=O)NC1=O [Example 32, Ac-c(Cys-D-Leu-Asp-Pro-Lys-Gln-Lys-Trp-Ile-Gln-Cys)-NH2] (Ac-C[dL]DPKQKWIQC-NH2; disulfide 1-11) | 8.7 |
| 250 | CC[C@H](C)[C@@H]1NC(=O)[C@H](Cc2c[nH]c3ccccc23)NC(=O)[C@H](CCCCN)NC(=O)[C@H](CCC(N)=O)NC(=O)[C@H](CCCCN)NC(=O)[C@@H]2CCCN2C(=O)[C@H](CC(=O)O)NC(=O)[C@H](CC(C)C)NC(=O)[C@@H](NC(=O)[C@H](CCCCN)NC(C)=O)CSSC[C@@H](C(N)=O)NC(=O)[C@H](CCC(N)=O)NC1=O [Example 34, Ac-Lys-c(Cys-Leu-Asp-Pro-Lys-Gln-Lys-Trp-Ile-Gln-Cys)-NH2] (Ac-KCLDPKQKWIQC-NH2; disulfide 2-12) | 75.7 |
| 50 | CC[C@H](C)[C@@H]1NC(=O)[C@H](Cc2c[nH]c3ccccc23)NC(=O)[C@H](CCCCN)NC(=O)[C@H](CCC(N)=O)NC(=O)[C@H](CCCCN)NC(=O)[C@@H]2CCCN2C(=O)[C@H](CC(=O)O)NC(=O)[C@H](CC(C)C)NC(=O)[C@H](N)CSSC[C@@H](C(=O)N[C@@H](CN)C(N)=O)NC(=O)[C@H](CCC(N)=O)NC1=O [Example 35, c(D-Cys-Leu-Asp-Pro-Lys-Gln-Lys-Trp-Ile-Gln-Cys)-Dap-NH2] (H-[dC]LDPKQKWIQC[Dap]-NH2; disulfide 1-11) | 91.9 |
| 600 | CC[C@H](C)[C@@H]1NC(=O)[C@H](Cc2c[nH]c3ccccc23)NC(=O)[C@H](CCCCN)NC(=O)[C@H](CCC(N)=O)NC(=O)[C@H](CCCCN)NC(=O)[C@@H]2CCCN2C(=O)[C@H](CC(=O)O)NC(=O)[C@H](CC(C)C)NC(=O)[C@@H](N)CSSC[C@H](C(N)=O)NC(=O)[C@H](CCC(N)=O)NC1=O [Example 36, c(Cys-Leu-Asp-Pro-Lys-Gln-Lys-Trp-Ile-Gln-D-Cys)-NH2] (H-CLDPKQKWIQ[dC]-NH2; disulfide 1-11) | 21.8 |
| > 1000 | CC[C@H](C)[C@@H]1NC(=O)[C@H](Cc2c[nH]c3ccccc23)NC(=O)[C@H](CCCCN)NC(=O)[C@H](CCC(N)=O)NC(=O)[C@H](CCCCN)NC(=O)[C@@H]2CCCN2C(=O)[C@H](CC(=O)O)NC(=O)[C@H](CC(C)C)NC(=O)[C@H](N)CSSC[C@H](C(N)=O)NC(=O)[C@H](CCC(N)=O)NC1=O [Example 37, c(D-Cys-Leu-Asp-Pro-Lys-Gln-Lys-Trp-Ile-Gln-D-Cys)-NH2] (H-[dC]LDPKQKWIQ[dC]-NH2; disulfide 1-11) | −14.7 |
| > 1000 | CC[C@H](C)[C@@H]1NC(=O)[C@H](Cc2c[nH]c3ccccc23)NC(=O)[C@H](CCCCN)NC(=O)[C@H](CCC(N)=O)NC(=O)[C@H](CCCCN)NC(=O)[C@@H](NC(=O)[C@@H]2CCCN2C(=O)[C@H](CC(=O)O)NC(=O)[C@@H](N)CC(C)C)CSSC[C@@H](C(N)=O)NC(=O)[C@H](CCC(N)=O)NC1=O [Example 38, Leu-Asp-Pro-c(Cys-Lys-Gln-Lys-Trp-Ile-Gln-Cys)-NH2] (H-LDPCKQKWIQC-NH2; disulfide 4-11) | −12 |
| > 1000 | CC[C@H](C)[C@@H]1NC(=O)[C@H](Cc2c[nH]c3ccccc23)NC(=O)[C@H](CCCCN)NC(=O)[C@H](CCC(N)=O)NC(=O)[C@H](CCCCN)NC(=O)[C@@H]2CCCN2C(=O)[C@H](CC(=O)O)NC(=O)[C@H](CC(C)C)NC(=O)[C@H](N)CSSC[C@@H](C(N)=O)NC(=O)[C@H](CCC(N)=O)NC1=O [Example 39, c(D-Cys-Leu-Asp-Pro-Lys-Gln-Lys-Trp-Ile-Gln-Cys)-NH2] (H-[dC]LDPKQKWIQC-NH2; disulfide 1-11) | 3.8 |
| 7 | CC[C@H](C)[C@@H]1NC(=O)[C@H](Cc2c[nH]c3ccccc23)NC(=O)[C@H](CCCCN)NC(=O)[C@H](CCC(N)=O)NC(=O)[C@H](CCCCN)NC(=O)[C@@H](NC(=O)[C@@H]2CCCN2C(=O)[C@@H](N)CC(=O)O)CSSC[C@@H](C(N)=O)NC(=O)[C@H](CCC(N)=O)NC1=O [Example 40, Asp-Pro-c(Cys-Lys-Gln-Lys-Trp-Ile-Gln-Cys)-NH2] (H-DPCKQKWIQC-NH2; disulfide 3-10) | 113.5 |
| 80 | CC[C@H](C)[C@@H]1NC(=O)[C@H](Cc2c[nH]c3ccccc23)NC(=O)[C@H](CCCCN)NC(=O)[C@H](CCC(N)=O)NC(=O)[C@@H](NC(=O)[C@H](CCCCN)NC(=O)[C@@H]2CCCN2C(=O)[C@@H](N)CC(=O)O)CSSC[C@@H](C(N)=O)NC(=O)[C@H](CCC(N)=O)NC1=O [Example 41, Asp-Pro-Lys-c(Cys-Gln-Lys-Trp-Ile-Gln-Cys)-NH2] (H-DPKCQKWIQC-NH2; disulfide 4-10) | 67.8 |
| 25 | CC[C@H](C)[C@@H]1NC(=O)[C@H](Cc2c[nH]c3ccccc23)NC(=O)[C@H](CCCCN)NC(=O)[C@H](CCC(N)=O)NC(=O)[C@H](CCCCN)NC(=O)[C@@H]2CCCN2C(=O)[C@H](CC(=O)O)NC(=O)[C@@H](N)CSSC[C@@H](C(N)=O)NC(=O)[C@H](CCC(N)=O)NC1=O [Example 42, c(Cys-Asp-Pro-Lys-Gln-Lys-Trp-Ile-Gln-Cys)-NH2] (H-CDPKQKWIQC-NH2; disulfide 1-10) | 94.4 |
| 600 | CC[C@H](C)[C@@H]1NC(=O)[C@H](Cc2c[nH]c3ccccc23)NC(=O)[C@H](CCCCN)NC(=O)[C@H](CCC(N)=O)NC(=O)[C@H](CCCCN)NC(=O)[C@@H](NC(=O)[C@@H]2CCCN2)CSSC[C@@H](C(N)=O)NC(=O)[C@H](CCC(N)=O)NC1=O [Example 43, Pro-c(Cys-Lys-Gln-Lys-Trp-Ile-Gln-Cys)-NH2] (H-PCKQKWIQC-NH2; disulfide 2-9) | 21.9 |
| 1000 | CC[C@H](C)[C@@H]1NC(=O)[C@H](Cc2c[nH]c3ccccc23)NC(=O)[C@H](CCCCN)NC(=O)[C@H](CCC(N)=O)NC(=O)[C@@H](NC(=O)[C@H](CCCCN)NC(=O)[C@@H]2CCCN2)CSSC[C@@H](C(N)=O)NC(=O)[C@H](CCC(N)=O)NC1=O [Example 44, Pro-Lys-c(Cys-Gln-Lys-Trp-Ile-Gln-Cys)-NH2] (H-PKCQKWIQC-NH2; disulfide 3-9) | 12.9 |
| 150 | CC[C@H](C)[C@@H]1NC(=O)[C@H](Cc2c[nH]c3ccccc23)NC(=O)[C@H](CCCCN)NC(=O)[C@@H](NC(=O)[C@H](CCC(N)=O)NC(=O)[C@H](CCCCN)NC(=O)[C@@H]2CCCN2)CSSC[C@@H](C(N)=O)NC(=O)[C@H](CCC(N)=O)NC1=O [Example 45, Pro-Lys-Gln-c(Cys-Lys-Trp-Ile-Gln-Cys)-NH2] (H-PKQCKWIQC-NH2; disulfide 4-9) | 74.2 |
| 150 | CC[C@H](C)[C@@H]1NC(=O)[C@H](Cc2c[nH]c3ccccc23)NC(=O)[C@H](CCCCN)NC(=O)[C@H](CCC(N)=O)NC(=O)[C@H](CCCCN)NC(=O)[C@@H]2CCCN2C(=O)[C@@H](N)CSSC[C@@H](C(N)=O)NC(=O)[C@H](CCC(N)=O)NC1=O [Example 46, c(Cys-Pro-Lys-Gln-Lys-Trp-Ile-Gln-Cys)-NH2] (H-CPKQKWIQC-NH2; disulfide 1-9) | 52.4 |
| 20 | CC[C@H](C)[C@@H]1NC(=O)[C@H](Cc2c[nH]c3ccccc23)NC(=O)[C@H](CCCCN)NC(=O)[C@H](CCC(N)=O)NC(=O)[C@@H](NC(=O)[C@@H](N)CCCCN)CSSC[C@@H](C(N)=O)NC(=O)[C@H](CCC(N)=O)NC1=O [Example 47, Lys-c(Cys-Gln-Lys-Trp-Ile-Gln-Cys)-NH2] (H-KCQKWIQC-NH2; disulfide 2-8) | 103.2 |
